US10105411B2, “Compositions and methods for modulating AT2R activity” (Novopyxis, Inc., priority 2014, dated 2018)
“Also recorded” adds a separate entry of the source. Where no end group is shown, it is not given here.

Columns and labels:
PC-12 cells = test: Survival/viability of serum-starved PC-12 cells (MTS cell proliferation assay); format: cell-based
Experimental: (§1) Serum-starvation reduced survival of SH-SY5Y cells and PC-12 cells. […] Treatment of this cell line with 300 nM of NP-6AK agonist led to increased cell viability by over 30% relative to treatment with native ligand of AT2R Ang II (300 nM). […] AT2R activation by NP-6AK agonist promotes cell survival whereas AT2R activation by other ligands are harmful to it.

MCL-1 [1] = test: MCL-1 expression in human vascular smooth muscle cells (CAVSMCs); format: cell-based; settings: for MCL-1 expression (in words): human CAVSMCs, FIG. 1B; for effect of AT2R antagonist on NP-6AK-mediated MCL-1 upregulation: antagonist with NP-6AK agonist
Excerpt: (§2) Cells treated with the NP-6AK agonist generated higher MCL-1 upregulation relative to those treated with a partial agonist such as CGP42112A.

SH-SY5Y cells [2] = test: Neurite elongation in SH-SY5Y cells; format: cell-based; settings: FIG. 3A
[3] = test system: primary murine embryonic cortical neurons; test: Neuroprotection of primary cortical neurons under nutrient deprivation; format: cell-based; settings: 300 nm agonist; glucose-free Locke's medium; 14 DIV; p<0.05
Experimental: For nutrient deprivation, primary cortical neurons (14 DIV) were incubated in glucose-free Locke's medium with or without […] NP-6AK agonist.
Ex vivo neurons were obtained and treated with an NP-6AK agonist in different conditions to assess neuroprotective properties. Normal primary murine embryonic cortical neurons in culture (14 days in vitro) were challenged with nutrient deprivation by incubation in glucose-free Locke's medium (Schnapf et al. (1990)). These cultures were then supplemented with 300 nM NP-6AK agonist or no NP-6AK agonist.

MCL-1 [4] = test: MCL-1 expression in SH-SY5Y cells (immunofluorescence staining); format: cell-based
Excerpt: The SH-SY5Y cell line is a neuronal cell line with both dopaminergic and adrenergic receptors.

[5] = test system: mouse HL-1 cardiomyocytes; test: Cell index (CI) cell survival, Xcelligence Real-Time Cell Analyzer, HL-1 cells; format: cell-based; settings: for increase in cell index (CI): serum starved HL-1 cells
Experimental: (§3) Thus, an NP-6AK agonist comprising the sequence Lys-Pro-Leu-Lys-Pro-Trp (SEQ ID NO. 2) promoted cell survival across mouse HL-1 cardiomyocytes and human smooth vascular muscle cells by acting through AT2R activation. Cell survival was assessed by measurement of cell index (CI) using a Xcelligence™ Real-Time Cell Analyzer (Westburg B V, Leusden, N L) to quantitatively determine the effect of different treatments on cell survival, adhesion, and proliferation. […] CGP42112A and the NP-6AK agonist (300 nM) increased CI of serum starved HL-1 cells in the order CGP42112A (≥14%), NP-6AK (≥25%). Increase in CI is a direct effect of AT2R activation. This was verified by addition of an AT2R antagonist, PD123319 (Sigma-Aldrich, Co. LLC, St. Louis, Mo.). In the presence of this antagonist, the cell survival otherwise observed using the NP-6AK agonist was not present.

[6] = test system: human smooth vascular muscle cells; test: Cell index (CI) cell survival, Xcelligence Real-Time Cell Analyzer, human smooth vascular muscle cells; format: cell-based
Experimental: as §3

SH-SY5Y cells [7] = test: Survival of serum-starved SH-SY5Y cells (MTS cell proliferation assay); format: cell-based; settings: serum starvation
Experimental: as §1

MCL-1 [8] = test: MCL-1 expression in HL-1 cardiomyocytes; format: cell-based, mouse; settings: for MCL-1 expression (in words): female mouse HL-1 cardiomyocytes, FIG. 1A; for effect of AT2R antagonist on NP-6AK-mediated MCL-1 upregulation: antagonist with NP-6AK agonist
Excerpt: as §2

Zucker Obese (ZO) rats = test: Zucker Obese rat diabetic/cardiovascular model, 2 weeks subcutaneous treatment; format: in vivo
Experimental: Zucker Obese (ZO) rats (Charles River Laboratories, Inc., Wilmington, Mass.), a diabetic animal model displaying signs of cardiovascular disease were treated for 2 weeks (dose of 0.9 mg/kg/day) via subcutaneous injection with an NP-6AK agonist and assessed for several markers of cardiovascular health including blood markers and structural parameters of the heart. Controls were ZO rats that received saline.

[9] = 0.9 mg/kg/day s.c., vs saline ZO rats

## AngII: native ligand of AT2R
PC-12 cells; MTS assay
  cell survival relative to cells treated with AT2R antagonist PD123319: more detrimental

## KPLKPW [NP-6AK agonist, AT2R agonist hexapeptide of the NP-6AK class]
MCL-1 [1]; 300 nM, human smooth vascular muscle cells, FIG. 1
  higher MCL-1 expression: 22%
MCL-1 [1]
  MCL-1 expression (in words): increases MCL-1 expression
SH-SY5Y cells [2]
  neurite elongation: promotes neurite elongation
[3]
  increased activity compared with negative controls: 60%
MCL-1 [4]; 300 nM, agonist alone, 24 hours, FIG. 2
  increase in MCL-1 expression: 2 fold
MCL-1 [4]; agonist added after Rapamycin, FIG. 3B
  MCL-1 expression after treatment with Rapamycin: reverses rapamycin-mediated suppression of MCL-1 expression; also recorded: able to recover MCL-1 expression
PC-12 cells; MTS assay
  increased survival relative to treatment with 300 nM CGP42112A: over 70%
PC-12 cells; serum starvation
  survival rate: higher survival rate
[5]; 300 nM, cell index
  survival and proliferation compared with CGP42112A (300 nM): significantly better survival and more proliferation
[5]; 300 nM
  increase in cell index (CI): ≥ 25%
[6]
  survival and proliferation compared with CGP42112A (300 nM): significantly better survival and more proliferation
SH-SY5Y cells [7]
  survival rate: higher survival rate
MCL-1 [8]; 300 nM, cardiomyocytes, FIG. 1
  higher MCL-1 expression: 45%
MCL-1 [8]
  MCL-1 expression (in words): increases MCL-1 expression
Zucker Obese (ZO) rats; [9]
  increased HDL on average: 12%
  reduced triglycerides (fasting plasma): ~50%
  reduced urine N-acetyl-beta-A-glucosaminidase: ~60%
  reduced urine protein: ~68%
Zucker Obese (ZO) rats; male ZO rat, 0.9 mg/kg/day
  Echocardiography/Strain analysis E/E: 26 ± 2.1
  Echocardiography/Strain analysis MPI: 0.389 ± 0.02
  Plasma Profile HDL: 73 ± 2.8 mg/dL
  Plasma Profile Triglycerides: 610 ± 109 mg/dL
  Urine Profile NA6: 10.9 ± 1.5 mg/dL
  Urine Profile Protein: 445 ± 86.4 mg/dL
Zucker Obese (ZO) rats; male ZO rat, 0.9 mg/kg/day, endocardium, short axis view
  Echocardiography/Strain analysis Circumferential Strain: −26.11 ± 2.47

## Cc1cc(Cn2cnc3c2C[C@@H](C(=O)O)N(C(=O)C(c2ccccc2)c2ccccc2)C3)ccc1N(C)C [PD123319]
MCL-1 [1]
  effect of AT2R antagonist on NP-6AK-mediated MCL-1 upregulation: MCL-1 upregulation was not observed
MCL-1 [1]; listed as PD
  effect of AT2R antagonist on NP-6AK-mediated MCL-1 upregulation: prevents NP-6AK-mediated up regulation of MCL-1
PC-12 cells; PC-12 cells
  protective effects of the NP-6AK agonist when treated with AT2R antagonist: the protective effects of the NP-6AK agonist were lost
[5]; antagonist added to NP-6AK agonist treatment
  cell survival otherwise observed using the NP-6AK agonist, in presence of the AT2R antagonist: not present
MCL-1 [8]
  effect of AT2R antagonist on NP-6AK-mediated MCL-1 upregulation: MCL-1 upregulation was not observed
MCL-1 [8]; listed as PD
  effect of AT2R antagonist on NP-6AK-mediated MCL-1 upregulation: prevents NP-6AK-mediated up regulation of MCL-1

## CGP42112A
MCL-1 [1]
  MCL-1 expression (in words): unable to increase MCL-1
PC-12 cells; MTS assay
  cell survival relative to cells treated with AT2R antagonist PD123319: more detrimental
[5]; 300 nM
  increase in cell index (CI): ≥ 14%
MCL-1 [8]
  MCL-1 expression (in words): unable to increase MCL-1
